Results published in US12403121B2, “Anticancer rocaglamide derivatives” (priority 2018, dated 2025).
Where two headings read alike, the source gives them in different places.

Experiments:
[1] = test system: Ben-Men-1 NF2−/− meningioma cells; assay: 3-day resazurin cell proliferation assay, Ben-Men-1 meningioma cells; format: cell-based, human; settings: read-out: IC50 (nM) Ben-Men-1 NF2−/− meningioma cells
Procedure: (§1) The human MPNST cell lines, ST8814, STS26T, S462, T265, and luciferase-expressing ST8814-Luc, the human NF2-deficient meningioma cell line Ben-Men-1, the NJ2 mouse schwannoma cell line Sch10545, and primary human Schwann cells were propagated as previously described. Oblinger et al., Neuro-Oncol., 18:1265-1277 (2016). The Ewing sarcoma cell line A673 and the osteosarcoma cell lines, 143B and MG-63, were grown in Dulbecco's Modified Eagle's (DME) medium (Millipore-Sigma) supplemented with 10% fetal bovine serum (FBS; Atlanta Biological). The silvestrol-sensitive 697 and silvestrol-resistant 697-R pre-B acute lymphoblastic leukemia cells (Gupta et al., AAPS J., 13:357-364 (2011)), the Ewing sarcoma cell line TC32, the osteosarcoma cell lines, Saos2 and OS17, and the rhabdomyosarcoma cell line RD were cultivated in RPMI 1640 medium (Millipore-Sigma) plus 10% FBS.
(§2) Actively-growing cells were seeded in 96-well plates (Sarstedt) at 2,000 cells/well for Ben-Men-1 and RD cells, 30,000 cells/well for 697 and 697-R cells, and 4,000 cells/well for all other cell lines. The following day, cells were treated with various concentrations of each compound or and 0.05% of DMSO as the control for six days for MG-63 cells or three days for all remaining cell lines. Cell proliferation was assessed using resazurin assays and the IC50 value calculated. Cell cycle analysis was performed accordingly. Burns et al., Cancer Res., 73:792-803 (2013).
(§3) To search for compounds with better drug-like properties, the inventors conducted a side-by-side comparison of ten rocaglates lacking the dioxanyl ring with silvestrol for growth-inhibitory activity in a panel of MPNST, schwannoma, and meningioma cell lines, which they had previously shown to be sensitive to the antiproliferative action of silvestrol. […] The average IC50 value of each rocaglate was determined by 3-day resazurin proliferation assays. […] Further structure and activity comparison discerned some positions on the cyclopenta[b]benzofuran scaffold that affected the antiproliferative activity of rocaglates.

[2] = test system: Sch10545 Nf2−/− schwannoma cells; assay: 3-day resazurin cell proliferation assay, Sch10545 schwannoma cells; format: cell-based, mouse; settings: read-out: IC50 (nM) Sch10545 Nf2−/− schwannoma cells
Procedure: as §1, §2, §3

[3] = test system: STS26T NF1+/+ MPNST cells; assay: 3-day resazurin cell proliferation assay, STS26T MPNST cells; format: cell-based, human; settings: read-out: IC50 (nM) STS26T NF1+/+ MPNST cells
Procedure: as §1, §2, §3

[4] = test system: ST8814 NF1−/− MPNST cells; assay: 3-day resazurin cell proliferation assay, ST8814 MPNST cells; format: cell-based, human; settings: read-out: IC50 (nM) ST8814 NF1−/− MPNST cells
Procedure: as §1, §2, §3

[5] = test system: panel of MPNST, schwannoma, and meningioma cell lines; assay: Side-by-side growth inhibition comparison with silvestrol in a cell line panel; format: cell-based; settings: all cell lines tested
Procedure: as §2, §3

[6] = test system: A673, TC32, 143B, MG-63, Saos2, OS17 and RD sarcoma cell lines; assay: Cell proliferation in Ewing sarcoma, osteosarcoma and rhabdomyosarcoma cell lines; format: cell-based
Procedure: as §1, §2
Since MPNSTs comprise only ˜2% of all sarcomas (Farid et al. Oncologist, 19:193-201 (2014)), the inventors expanded their testing of Roc and DDR to three other more prevalent sarcomas particularly in children and young adults: Ewing sarcoma, osteosarcoma, and rhabdomyosarcoma.

[7] = test system: STS26T and ST8814 MPNST cells; assay: Flow cytometry cell cycle analysis; format: cell-based, human; settings: one- or two-IC50 doses, three days
Procedure: as §2

[8] = test system: TC32 Ewing sarcoma, 143B osteosarcoma, and RD rhabdomyosarcoma cells; assay: Western blots of treated sarcoma cells; format: cell-based
Procedure: FIGS. 7A-7C provide images showing DDR and Roc reduce multiple signaling proteins important for the growth and survival of sarcoma cells. Lysates prepared from TC32 Ewing sarcoma (A), 143B osteosarcoma (B), and RD rhabdomyosarcoma (C) cells were treated 1 and 2 days with the indicated concentrations of DDR or Roc and analyzed by Western blotting for the expression of various oncogenic driver proteins. GAPDH was used as a loading control.
(§4) Subconfluent cells were treated with the indicated doses of Roc or DDR for 24-72 hours and then harvested in cell lysis buffer (Cell Signaling Technology) containing 1 mM phenylmethylsufonylfluoride and protease inhibitor cocktail (Sigma-Aldrich). The protein content in cleared lysates was quantitated using the microBCA assay (ThermoFisher). Equal amounts of protein were run in sodium dodecyl sulfate-polyacrylamide gels and electrotransferred onto Immobilon-FL PVDF membranes (Millipore). The antibodies used were directed against: MDR1/ABCB1 (#13978), insulin-like growth factor-1 receptor β subunit (IGF-1Rβ; #9750), AKT (#9272), ERK1/2 (#4695), glyceraldehyde-3-phosphate dehydrogenase (GAPDH; #5174), caspase-3 (#9662), caspase-7 (#9492), cleaved caspase-7 (#9491), poly(ADP-ribose) polymerase (PARP; #9532), cleaved PARP (#5625), and phospho-histone H2A.X (pH2A.X[Ser′^39]; #9718; all from Cell Signaling Technology), NKX2.2 (sc-514161), LSD1 (sc-136174), and survivin (sc-17779; Santa Cruz Biotechnology), and FLI1 (ab15289) and cleaved caspase-3 (CC3; ab32042; Abeam). Protein bands were detected using IRDye® infrared fluorescent dye-labeled secondary antibodies and scanning on an Odyssey CLx imaging system (LI-COR Biosciences) using the appropriate fluorescent channel at a resolution of 84 μm.
To further examine the molecular mechanisms underlying the antiproliferative effects of rocaglamides, the inventors treated TC32 Ewing sarcoma, 143B osteosarcoma, and RD rhabdomyosarcoma cells with 1- or 2-IC50 dose of DDR or rocaglamide for 1-2 days followed by Western blotting for several known drivers of cell survival and proliferation. […] They also observed reduction of the IGF-1Rβ levels in rocaglamide-treated MPNST cells. In addition, Roc and DDR decreased the levels of AKT, ERKs, cyclin D1 and survivin in treated TC32, 143B, and RD cells (FIG. 7). Intriguingly, the oncogenic fusion protein EWS-FLI1, which acts as an aberrant transcription factor in Ewing sarcoma, was not affected in Roc- and DDR-treated TC32 Ewing sarcoma cells (FIG. 7A). […] However, the expression of lysine demethylase 1 (LSD1), which modulates EWS-FLI1 transcriptional activity (Sankar et al., Oncogene, 32:5089-5100 (2013)), and NKX2.2, an EWS-FL11-regulated gene necessary for oncogenic transformation (Smith et al., Cancer Cell, 9:405-416 (2006)), were diminished by these rocaglamides in TC32 cells (FIG. 7A).

[9] = test system: STS26T cells; assay: Western blots of treated MPNST cells; format: cell-based, human; settings: 1 or 2 IC50
Procedure: FIGS. 2A and 2B provide images showing that DDR and Roc increase caspase and PARP cleavage and elevated the levels of γH2AX while decreasing the expression of AKT and ERKs in MPNST cells. (A) Protein lysates prepared from STS26T cells treated for 3 days with 1 or 2 IC50 of DDR or Roc were analyzed by Western blots for the expression of various apoptosis-related proteins and mitogenic kinases AKT and ERK1/2. GAPDH served as a loading control. (B) Western blot analysis was performed on lysates from STS26T cells treated for 1 and 2 days with 1 or 2 IC50 of DDR for the expression of the DNA-damage response biomarker phosphorylated H2A.X (γH2A.X). As a positive control, lysates from HMS-97 human malignant schwannoma cells irradiated with 4 Grays (Gy) of X-ray were used.
as §4
To confirm induction of apoptosis in rocaglamide-treated MPNST cells, the inventors analyzed protein expression of several markers important for this process. […] A concomitant decrease in the amounts of intact caspases 3 and 7 and PARP was observed, consistent with the enhanced cleavage of these apoptotic markers and possibly due to direct effects of these rocaglamides on protein translation. Likewise, the levels of the pro-survival kinases AKT and ERK1/2 were diminished in rocaglamide-treated MPNST cells.

[10] = 3-day resazurin proliferation assay, average IC50

## COc1ccc([C@@]23Oc4cc(OC)cc(OC)c4[C@]2(OC)[C@H](O)C[C@H]3c2ccccc2)cc1 [8b-O-methylrocaglaol]
[1]; [10]
  IC50: > 20000 nM
[2]; [10]
  IC50: > 20000 nM
[3]; [10]
  IC50: > 20000 nM
[4]; [10]
  IC50: > 20000 nM

## COC(=O)C1C(O)C2(O)c3c(OC)cc(OC)cc3OC2(c2ccc3c(c2)OCO3)C1c1ccccc1 (centres unmarked) [Methyl 4′-demethoxy-3′,4′-methylenedioxyrocaglate]
[1]; [10]
  IC50: 80 nM
[2]; [10]
  IC50: 60 nM
[3]; [10]
  IC50: 35 nM
[4]; [10]
  IC50: 70 nM

## COC(=O)C1C(O)C2(OC)c3c(OC)cc(OC)cc3OC2(c2ccc(OC)cc2)C1c1ccccc1 (centres unmarked) [Methyl 8b-O-methylrocaglate]
[1]; [10]
  IC50: > 10000 nM
[2]; [10]
  IC50: 9300 nM
[3]; [10]
  IC50: ≥ 10000 nM
[4]; [10]
  IC50: > 20000 nM

## COc1ccc([C@@]23Oc4cc(OC)cc(OC)c4[C@]2(O)[C@H](O)[C@H](C(N)=O)[C@H]3c2ccccc2)cc1 [Didesmethylrocaglamide]
[1]; Homo sapiens, 72 h
  IC50: 5 nM
[2]; Mus musculus, 72 h
  IC50: 10 nM
[3]; Homo sapiens, STS-26T, 72 h
  IC50: 5 nM
[5]
  potency relative to silvestrol: ~2 fold
[6]; every sarcoma cell line tested
  IC50 values of DDR compared with Roc: lower IC5O values than Roc
[6]; two Ewing sarcoma, four osteosarcoma, one rhabdomyosarcoma cell lines
  activity against sarcoma cell lines: highly active
[7]
  G2/M fraction: marked increase in the GVM fraction
[4]; Homo sapiens, ST88-14, 72 h
  IC50: 5 nM
[8]; 1- or 2-IC50 dose, 1-2 days, all three sarcoma cell lines
  levels of the β subunit of IGF-1R: reliably reduced
[8]; TC32, 143B, and RD cells, 1- or 2-IC50 dose, 1-2 days
  levels of AKT, ERKs, cyclin D1 and survivin: decreased
[8]; TC32 Ewing sarcoma cells
  EWS-FLI1 fusion protein level: not affected
[8]; TC32 cells
  expression of LSD1 and NKX2.2: diminished
[9]; STS26T MPNST cells
  levels of γH2AX: elevated
[9]; STS26T cells, 3 days
  cleavage of caspases 3 and 7 and PARP: increased cleavage
  expression of AKT and ERKs: decreasing

## COC(=O)C1C(O)C2(OC)c3c(OC)cc(OC)cc3OC2(c2ccc3c(c2)OCO3)C1c1ccccc1 (centres unmarked) [Methyl 8b-O-methyl-4′-demethoxy-3′,4′-methylenedioxyrocaglate]
[1]; [10]
  IC50: 3800 nM
[2]; [10]
  IC50: 1900 nM
[3]; [10]
  IC50: 1300 nM
[4]; [10]
  IC50: 2000 nM

## COc1ccc([C@@]23Oc4cc(OC)cc(OC)c4[C@]2(O)[C@H](O)C[C@H]3c2ccccc2)cc1 [Rocaglaol]
[1]; Homo sapiens, 72 h, 3-day resazurin proliferation assay, average IC50
  IC50: 100 nM
[2]; Mus musculus, 72 h, 3-day resazurin proliferation assay, average IC50
  IC50: 60 nM
[3]; Homo sapiens, STS-26T, 72 h, 3-day resazurin proliferation assay, average IC50
  IC50: 40 nM
[4]; Homo sapiens, ST88-14, 72 h, 3-day resazurin proliferation assay, average IC50
  IC50: 90 nM

## COc1cc(OC)c2c(c1)OC1(c3ccc4c(c3)OCO4)C(c3ccccc3)CC(O)C21O (centres unmarked) [4′-demethoxy-3′,4′-methylenedioxyrocaglaol]
[1]; [10]
  IC50: 85 nM
[2]; [10]
  IC50: 65 nM
[3]; [10]
  IC50: 55 nM
[4]; [10]
  IC50: 120 nM

## COC(=O)[C@H]1[C@@H](O)[C@@]2(O)c3c(OC)cc(OC)cc3O[C@@]2(c2ccc(OC)cc2)[C@@H]1c1ccccc1 [Methyl rocaglate]
[1]; [10]
  IC50: 55 nM
[2]; [10]
  IC50: 50 nM
[3]; [10]
  IC50: 25 nM
[4]; [10]
  IC50: 35 nM

## COc1cc(OC)c2c(c1)OC1(c3ccc4c(c3)OCO4)C(c3ccccc3)CC(O)C21OC (centres unmarked) [8b-O-methyl-4′-demethoxy-3′,4′-methylenedioxyrocaglaol]
[1]; [10]
  IC50: > 2500 nM
[2]; [10]
  IC50: > 2500 nM
[3]; [10]
  IC50: 5000 nM
[4]; [10]
  IC50: 10000 nM
